A short description of this data set: Solubility of EDOT^PEGn-HTL monomer variants in various solvents. Format: physicochemical. Conditions: compared among three variants (n=1,2,3). The source says:
EDOT conjugates with HTL have not been reported previously. Initially a series of EDOT^PEGn-HTL monomers (n=1,2,3, . . . ) were synthesized, wherein it was anticipated that increasing the number of PEG repeats would improve solubility, at the risk of exacerbating sidechain steric interference (FIG. 2A). The HTL modification increases the molecular weight of the monomer. The unmodified EDOT has a molecular weight (MW) of […]; while EDOT^PEGn-HTL has a MW of 551 (n=1), 595 (n=2), 639 (n=3), or MW of 507+44×n. Thus, all of the candidate designs carry substantial steric bulk, which is inevitable.
Several conditions were tested, including various solvents, against the three variants. […] EDOT^PEG3-HTL was unable to be polymerized with PSS as the counter-ion. Specifically, whereas the formation of PEDOT:PSS is accompanied by an unmistakable darkening of a gold surface (i.e., the polymer is visible to the naked eye), no visual indication of polymerization was seen when EDOT was replaced with EDOT^PEG3-HTL (FIG. 3A and FIG. 3B). This held true over a wide range of voltage parameters and concentrations.

For the molecule `O=C(CCOCCOCCOCCNC(=O)COCC1COc2cscc2O1)NCCOCCOCCCCCCCl` (stereo not shown) [EDOT^PEG3-HTL, N-(2-(2-((6-chlorohexyl)oxy)ethoxy)ethyl)-3-((1-(2,3-dihydrothieno[3,4-b][1,4]dioxin-2-yl)-4-oxo-2,8,11-trioxa-5-azatridecan-13-yl)oxy)propanamide], the solubility result is listed as “most soluble”.

The values are drawn from US20240352183A1, “CONDUCTIVE POLYMER WITH COVALENT CAPTURE ABILITY AND METHODS OF USING SAME” (Duke University, priority 2021, published 2024).
